# Test results reported in a melting point compilation (Tetko et al.; mined from patent text by program, amines drawn as free bases though some values may be those of a salt).
row,Compound,melting point [°C]
1,COc1ccc(S(=O)(=O)N2CC3CCC(C3)C2)c2ccccc12,136 to 139
2,CCOC(=O)c1sc(Cc2ccccc2)nc1O,97 to 98
3,Cc1cc(C)c(CNc2c(C)nn(C)c2NCC(C)(C)C)c(C)c1,114 to 120
4,Cc1cc(N2CCC(CN3CCN(S(=O)(=O)c4ccc(Br)cc4)CC3)CC2)nc(C)n1,73 to 74
5,CC1(C)CCC(C)(C)c2cc(C(O)C3CCCCC3C(=O)O)ccc21 (stereo unspecified),186
6,COC(=O)[C@@H]1C[C@@H](O)CN1S(=O)(=O)c1ccc(Cl)c(COc2cccc3c(C)cc(C)nc23)c1Cl,100
7,NCC1(SCc2ccccc2)C2CC3CC(C2)CC1C3 (stereo unspecified),82 to 85
8,CCOc1ccc2nc(N3CCC(OC[C@H](C)NC(C)=O)CC3)sc2c1,129 to 131
9,CCc1nc2c(N)nc3cc(CCCNC(=O)NC(C)C)ccc3c2n1CC1CCOCC1,213 to 216
10,CCn1cc(C(=O)Nc2nccs2)c2ccc(Cl)cc21,234 to 236
11,O=C(NCc1cccs1)c1cc2ccnc(Cl)c2[nH]1,179 to 181
12,COc1cc2c(cc1OC)C(=C(C#N)SCC(CN1CCOCC1)OC(=O)c1ccccc1)NCC2 (stereo unspecified),144
13,COc1cncc(OC)c1CCCOc1cccnc1Oc1cccc(Br)c1,106 to 154
14,Cc1ccc(Cc2nc3cc(Cl)c(S(N)(=O)=O)cc3[nH]2)cc1,214 to 217
15,O=C1Nc2cc(Cl)ccc2C(=O)C1c1cccs1 (stereo unspecified),305 to 307
16,CC(=O)c1cc(C#N)c(=O)[nH]c1-c1ccncc1,255 to 257
17,NC(=O)CN1C(=O)COc2cc(F)c(N3C(=O)C4=C(CCCC4)C3=O)cc21,283 to 286
18,CC(C)(C)[Si](C)(C)Oc1ccc2cc3c(cc2c1)C(=O)c1cc2ccc(O[Si](C)(C)C(C)(C)C)cc2cc1C3=O,< 270
19,COc1ccc(N2CCN(c3c(C)c(C)c4c(c3C)C(N3CCCC3)C(C)(C)O4)CC2)cc1OC (stereo unspecified),128 to 130
20,CC(=O)OCC(OC(C)=O)C(OC(C)=O)C(C=O)OC(C)=O (stereo unspecified),161 to 162
21,Clc1cc2cc[nH]c2c2cccnc12,248 to 250
22,OCCOc1ccc2ccn(C3CCN(CCc4ccc(F)cc4)CC3)c2c1,118 to 119

row,Compound,melting point [°C]
1,CC(=O)NC[C@H]1CN(c2ccc(N3CCN(CCCO)CC3)c(F)c2)C(=O)O1,154 to 156
2,COc1ccc(S(=O)(=O)CC(CS(=O)(=O)c2ccc(OC)cc2)C(=O)O)cc1,174 to 175
3,O=S1CCON=C1c1nc2ccccc2s1 (stereo unspecified),192 to 195
4,NC(=O)NC1CCCCC1,175 to 176
5,CCCCOc1ccc(S(=O)(=O)C2(C(=O)O)CCN(Cc3ccc(C)cc3)CC2)cc1,137
6,BrCCOc1ccc(Cn2cccn2)cc1,63 to 65
7,CCOC(=O)C(C#N)=Cc1cccc(C(F)(F)F)c1Cl,50
8,CCc1[nH]c(C)c(C(C)=O)c1C,153 to 160
9,O=c1c(Br)c(Br)cnn1-c1cccc(C(F)(F)F)c1,158 to 175
10,Cc1noc(NC(=O)N2CCN(c3nccc(-c4ccc(F)cc4)n3)CC2)c1C,226 to 227
11,O=Cc1cc2n(n1)-c1ccc(Cl)cc1C(c1ccccc1)=NC2,170 to 172
12,CCCc1nn(-c2ccc(C(F)(F)F)cn2)cc1COc1cccc(CC(=O)O)c1,77 to 78
13,CN1C(=O)CN=C(c2ccccc2)c2cc(CN)ccc21,201
14,O=C(NCCc1cccs1)c1cc(Cl)cc(Cl)c1,100 to 102
15,Nc1c(O)c(Br)cc(Br)c1C(=O)O,162 to 164
16,O=[N+]([O-])c1ccc(C2SCCCS2)c(CO)c1,130 to 131
17,COC(=O)C(=O)C1C(=O)C(=O)C(CCCCCCC(=O)O)C1=O (stereo unspecified),127 to 129
18,CCCCC(C)c1cc(O)c2c(c1)OC(C)(C)CC2C1=CCN(CCc2ccccc2)CC1 (stereo unspecified),141 to 143
19,Nc1nc2c(ncn2Cc2ccoc2)c(=O)[nH]1,308 to 310
20,C=Cc1c(C)oc(-c2ccc(S(C)(=O)=O)cc2)c(Oc2ccc(F)cc2F)c1=O,184
21,COc1ccc(C(=O)Nc2ccc(C(=O)O)c3ccccc23)cc1OC,256 to 259
22,CCC1(CCCCCl)C(=O)Nc2ccc(F)cc21 (stereo unspecified),96 to 97

row,Compound,melting point [°C]
1,CC(=O)Oc1cccc(C(=O)N[C@@H](Cc2ccccc2)[C@H](OC(C)=O)C(=O)O)c1C,152 to 154
2,Cc1ccc(COc2ncc(F)c(NS(C)(=O)=O)n2)cc1,145 to 148
3,COc1cc2nc(N)nc(-c3cccc(Cl)c3)c2cc1OC,242 to 245
4,COc1cc(Cc2cnc(N)nc2N)cc(OC)c1-n1cccc1,220
5,NS(=O)(=O)c1ccc(-c2c(COCCCO)n[nH]c2-c2ccc(Cl)cc2)cc1,96
6,CN(C)CCCC(C#N)(c1ccc(Cl)cc1)c1ccc(-n2ncc(=O)[nH]c2=O)cc1Cl (stereo unspecified),140
7,COC(=O)c1ccc(CBr)c(N(C)C(=O)OC)c1,99 to 102
8,O=S(CCCCCOc1ccc(C2=C(c3ccc(O)cc3)CCCc3cc(O)ccc32)cc1)CCCC(F)(F)C(F)(F)F (stereo unspecified),165 to 168
9,CCOCc1cc(OC)c(-c2ccc(C[C@H](NC(=O)c3c(F)cccc3F)C(=O)OCC)cc2)c(OC)c1,87 to 89
10,CN(CCCNC(=O)COc1nc2ccccc2s1)Cc1ccc(Cl)c(Cl)c1,113 to 115
11,CCOC(=O)CCCOc1ccc(-c2cc(C#N)c(=O)[nH]c2C)cc1,222 to 224
12,COc1cc2cc3c(Nc4ccc(Sc5nccn5C)c(Cl)c4)c(C#N)cnc3cc2cc1OCCN1CCN(C)CC1,184 to 186
13,COc1ccc2[nH]ccc(=O)c2c1OCc1ccccc1,171 to 172
14,CC(=O)N1CCc2c(sc(C)c2CCCCN2CCC(c3noc4cc(F)ccc34)CC2)C1,158 to 160
15,CC(C)OC(=O)Nc1cccc2c1C(=O)C1(O)c3ccc(C(C)C)cc3OC21O (stereo unspecified),200 to 202
16,Cc1c(-c2ccccc2)[nH]c(N2CCCC2=O)c1C#N,140 to 141
17,Cc1ccc(-c2nnc(N3CCCC(O)C3)nc2-c2ccc(C)cc2)cc1 (stereo unspecified),122 to 125
18,O=[N+]([O-])c1ccc(S(=O)(=O)Nc2cccc(F)c2)c([N+](=O)[O-])c1,172 to 173
19,OCc1c(F)c(Cl)c(F)c(Cl)c1F,67 to 68
20,CC(=O)OC1CSC(Oc2cccnc2-c2ccc(C)o2)C(OC(C)=O)C1OC(C)=O (stereo unspecified),128
21,CN1C(=O)Nc2ccc(Cl)cc2C12NC(=O)NC2=O (stereo unspecified),> 280

# Now from value to compound:
row,melting point [°C],Compound
1,140 to 142,CC(=O)c1cc(N2CCOCC2)ccc1NC(=O)c1cccc(OCc2ccccc2)c1
2,194 to 201,COC(=N)c1ccc(-c2cc3ncn([C@H](C)[C@](O)(Cn4cncn4)c4ccc(F)cc4F)c(=O)c3s2)cc1
3,183 to 184,C[C@@H](c1ccc(-c2cc(=O)n(C)cc2F)cc1)N1CC[C@](CC(C)(C)O)(c2ccccc2)OC1=O
4,238 to 239,O=c1cc2c(nn1Cc1ccc(Cl)cc1)-c1ccccc1S(=O)(=O)CC2
5,234 to 236,COc1ccc(-c2sc3c(c2CBr)c(=O)c(-c2cnco2)cn3Cc2ccccc2F)cc1
6,206 to 209,O=C1Cc2c(cc3ccccc3c2Cl)C(c2ccccc2F)N1 (stereo unspecified)
7,143 to 145,CN(C)CC1CCc2cc(NC(=O)c3ccc(-c4ccc(Cl)c(Cl)c4)cc3)ccc2C1 (stereo unspecified)
8,131 to 132,CCOC(=O)C1(c2ccc(Cl)cc2)OCC2(CO1)c1ccccc1Oc1ccccc12
9,140 to 143,Oc1ccc(-c2ccc(CCC(O)CCc3cccnc3)cc2)cc1 (stereo unspecified)
10,104 to 105,OCc1cn(Cc2ccc(Cl)cc2)nc1CN1CCC(c2ccccc2)(c2ccccc2)CC1
11,191 to 193,O=C(CC1c2ccc(-c3ccccc3)cc2S(=O)(=O)N1c1ccccc1)NO (stereo unspecified)
12,149 to 150,O=c1c2cccnc2c(-c2cccc(Cl)c2)cn1Cc1ccccc1
13,83 to 86,O[C@@H](COc1cccc(-c2noc3ccsc23)c1)CN1CCN(c2ccccc2Cl)CC1
14,218 to 219,O=C(NCc1ccc(Cl)c(Cl)c1)c1cn2c(=O)n(Cc3ccc(Cl)cc3)c(=O)cc2s1
15,146 to 149,Cc1ccc(S(=O)(=O)OCCCCCCn2c3c(c4ccccc4c2=O)C(=O)c2ccccc2-3)cc1
16,115 to 117,Fc1ccc(CN2CC=C(/C=C/c3ccccc3)CC2)cc1

row,melting point [°C],Compound
1,220,O=C(NC(CCc1ccccc1)c1nnc(NS(=O)(=O)c2ccccc2)o1)c1cccc2[nH]c(-c3ccncc3)nc12 (stereo unspecified)
2,156 to 159,CCN1CC(=O)N(c2ccc3ccccc3c2)C1=S
3,215 to 216,Cc1nnc(-c2ccc3ccn(-c4ccc(S(C)=O)cc4)c3c2)o1 (stereo unspecified)
4,166 to 168,c1ccc2c(Cn3c(-c4ccc5c(c4)OCO5)nc4ccccc43)cccc2c1
5,116 to 118,COc1ccc(CCCOCCn2cnc3c(N)nc4ccccc4c32)cc1
6,95 to 96,COc1cc(CN2CCc3cc(OCc4ccccc4)c(OC)cc3C2)cc(OC)c1
7,84,Cc1cc(F)ccc1-c1ccc(S(=O)(=O)N2c3ccccc3CC2C(=O)NCCOc2ccc(C(=O)OC(C)(C)C)cc2)cc1 (stereo unspecified)
8,234,C=CCc1c(-c2cc(=O)c3c(O)cc(OCc4ccccc4)cc3o2)ccc(OC)c1O
9,164 to 181,NC1=NC(c2ccc(O)cc2)(c2cccc(-c3cccnc3F)c2)C2=NCCCN12 (stereo unspecified)
10,218 to 220,Cn1c(COc2nn3c(-c4ccccc4F)nncc3c2-c2ccccc2F)nc2ccccc21
11,283 to 285,O=C1c2ccccc2-c2c1c(-n1ccnc1)nc1ccc(Br)cc21
12,240,O=c1[nH]cc(C(c2ccccc2)c2ccccc2)cc1C(c1ccccc1)c1ccccc1
13,90,O=C(O)Cc1ccc(CNC(=O)C2Cc3ccccc3N2S(=O)(=O)c2ccc(-c3cccc(C(F)(F)F)c3)cc2)cc1 (stereo unspecified)
14,152 to 154,O=C(c1ccccc1)c1ccc2nc(C(F)(F)F)c(Br)nc2c1
15,217 to 219,CONC(=O)Nc1ccc(-c2sc3c(c2CCl)c(=O)n(-c2ccccc2)c(=O)n3Cc2c(F)cccc2F)cc1
